Measurements taken from patent US20090203744A1, “NOVEL PYRIDINE DERIVATIVES” (priority 2005, published 2009).

Test system: Streptozotocin induced diabetic mice
Assay: Antidiabetic activity in Streptozotocin induced diabetic mice
Format: in vivo
Details: plasma, 50 mg/kg oral for 7 days, fasted 6 hours, compared to control group
Method: Male Swiss albino mice were used in the study at the age of 10 weeks. Diabetes was induced in animals by injecting Streptozotocin by i.p. route at a dose of 200-mg/kg-body weight. 48 hours after Streptozotocin administration, the animals were kept for fasting for 6 hours and blood was collected and plasma separated and glucose was estimated. Animals showing greater than 200 mg/dl glucose levels were considered as diabetic and these animals were randomly distributed into various groups. The compounds listed in the table 2 were administered at a dose of 50-mg/kg body weight by oral route for 7 days. Later animals were fasted for 6 hours and blood was collected and plasma separated. Biochemical estimations like glucose, cholesterol and triglycerides were carried out using the plasma. The effect of compounds mentioned in the table was expressed in terms of percentage reduction in biochemical values as compared to control group.

Structure (SMILES)	% Reduction Triglyceride [%]	% Reduction Cholesterol [%]	% Reduction Glucose [%]
CN1C(=O)OC[C@@H]1Cc1ccc(Oc2ccc(Nc3ncccc3C#N)cc2F)cc1 [Example 22, 2-{[3-fluoro-4-(4-{[(4S)-3-methyl-2-oxo-1,3-oxazolidin-4-yl]methyl}phenoxy)phenyl]amino}nicotinonitrile]	5.2	–	–
CCN(c1ccc(Oc2ccc(C[C@H]3COC(=O)N3CC)cc2)cc1)c1ncccc1C#N [Example 24, (4S)-2-[ethyl(4-{4-[(3-ethyl-2-oxo-1,3-oxazolidin-4-yl)methyl]phenoxy}phenyl)amino]nicotinonitrile]	13.7	15.9	–
CN(c1ccc(Oc2ccc(C[C@H]3COC(=O)N3C)cc2)cc1)c1ncccc1C#N [Example 45, (4S)-2-[methyl(4-{4-[(3-methyl-2-oxo-1,3-oxazolidin-4-yl)methyl]phenoxy}phenyl)amino]nicotinonitrile]	53.8	10	39

Test system: 3T3-L1 cells
Assay: Glucose uptake assay using 3T3-L1 cells
Format: cell-based
Details: differentiated 3T3-L1 adipocytes, 1 μM, 72 hours, 14C deoxyglucose uptake for 10 minutes; with reference to stimulation index of BLX-1002
Method: 3T3-L1 cells were differentiated by the addition of differentiation cocktail (72 μg/ml insulin, 0.5 mM IBMX, 400 ng/ml Dexamethasone) for 4 days and later fed with media without differentiation cocktail for 7-8 days. After differentiation the cells were incubated with the either the reference compound BLX-1002 or compounds listed in the table 1 at 1 μM concentrations for 72 hours and carried out the glucose uptake assay for 10 minutes by the addition of KRP buffer supplemented with 2.5 μCi/ml ^14C deoxy glucose. Stimulation Index is defined as the amount of ^14C Deoxyglucose uptake induced by 1 μM of BLX-1002 incubated for 72 hours in an assay condition as per protocol described above with differentiated 3T3-L1 adipocytes. Values of compounds mentioned in table-1 are with reference to stimulation index of reference compound BLX-1002.

Structure (SMILES)	Stimulation Index
CN1C(=O)OC[C@@H]1Cc1ccc(Oc2ccc(Nc3ccccn3)cc2)cc1 [Example 1, 3-methyl-4-{4-[4-(pyridin-2-ylamino)phenoxy]benzyl}-1,3-oxazolidin-2-one]	0.827
CN1C(=O)OC[C@@H]1Cc1ccc(Oc2ccc(Nc3ccc([N+](=O)[O-])cn3)cc2)cc1 [Example 2, (4S)4-(4-{4-[(5-nitropyridin-2-yl)amino]phenoxy}benzyl)-3-methyl-1,3-oxazolidin-2-one]	0.935
CCN1C(=O)OC[C@@H]1Cc1ccc(Oc2ccc(Nc3ccccn3)cc2F)cc1 [Example 8, (4S)-4-[4-(2-fluoro-4-{[5-pyridin-2-yl]amino}phenoxy)benzyl]-3-ethyl-1,3-oxazolidin-2-one]	1.049
CCN1C(=O)OC[C@@H]1Cc1ccc(Oc2ccc(Nc3ncccc3[N+](=O)[O-])cc2F)cc1 [Example 12, (4S)-4-[4-(2-fluoro-4-{[3-nitropyridin-2-yl]amino}phenoxy)benzyl]-3-ethyl-1,3-oxazolidin-2-one]	0.935
CCN1C(=O)OC[C@@H]1Cc1ccc(Oc2ccc(Nc3ncccc3C#N)cc2F)cc1 [Example 13, 2-{[3-fluoro-4-(4-{[(4S)-3-ethyl-2-oxo-1,3-oxazolidin-4-yl]methyl}phenoxy)phenyl]amino}nicotinonitrile]	0.874
CCN1C(=O)OC[C@@H]1Cc1ccc(Oc2ccc(Nc3ncccc3C#N)cc2)cc1 [Example 14, 2-[(4-{4-[(3-ethyl-2-oxo-1,3-oxazolidin-4-yl)methyl]phenoxy}phenyl)amino]nicotinonitrile]	0.827
